Experimental data as given in patent US6525200B1, “Multicyclic aromatic compounds and uses thereof” (Roche Diagnostics Corporation, priority 2000, dated 2003).
Structures can show the parent of a compound that is named as a salt. Where two headings read alike, the source gives them in different places.

Tests used:
[1] = in water; read-out: dissociation constant of the complex with methylguanidinium ion; cited from earlier work
[2] = water or aqueous medium; cited from earlier work
[3] = UV-visible titration of receptor with N-methylguanidine hydrochloride in distilled water; format: binding
Experimental: (§1) UV-visible absorbance and fluorescence were examined. UV spectra were recorded on a Hewlett-Packard 8452A diode array UV-vis spectrophotometer, using a cell of 1 cm pathlength. Fluorescence spectra were recorded on a Photon Technology International QM-1 Steady state Fluorescence system. For UV-visible titrations stability constants (Ks) were calculated by fitting the data to the equation: Aobs=(εR[R]t+[R]t(εRG−εR)(Ks[G]t+Ks[R]t+1−sqrt((Ks[G]t+Ks[R]t+1)^2−4*[R]t Ks^2[G]t))/(2Ks[R]t))1 derived from Ks=[G][R]/[RG], [R]t=[R]+[RG], [G]t=[G]+[RG], and Aobs=(εR[R]+εRG[RG])1. The experimentally determined parameters are as follows: [R]t, the total concentration of a receptor; [G]t, the total concentration of a guest; Aobs, the observed absorbance; εR, the extinction coefficient of free receptor; 1, cell pathlength. The fitted parameters: εRG, the extinction coefficient of a receptor complex with a guest, Ks, the stability constant. For fluorescense titrations stability constants (Ks) were calculated by fitting as the data to the equation: Iobs=IR+(IRG−IR)(Ks[G]t+Ks[R]t+1−sqrt((Ks[G]t+Ks[R]t+1)^2−4*[R]tKs^2[G]t))/(2Ks[R]t) derived from Ks=[G][R]/[RG], [R]t=[R]+[RG], [G]t=[G]+[RG], and Iobs=IR+IRG. The experimentally determined parameters are as follows: [R]t, the total concentration of a receptor; [G]t, the total concentration of a guest; Iobs, the observed fluorescence intensity; IR, the fluorescence intensity of free receptor at a given concentration. The fitted parameters: IRG, the fluorescence intensity of a receptor complex with aguest at a given concentration, Ks, the stability constant. The calculations were performed using software Sigma Plot 1.02 (Jandel Scientific) with tolerance value 0.000100. The goodness of fit was evaluated by means of the Student's Paired t-Test (P-value>0.05).
UV-visible titrations was performed by first preparaing a 30 μM receptor 5 (compound IA) stock solution in distilled water. […]
The following parameters were found from absorbance data measured at 410 nm: εR=6.50×10^3 cm^−1 M^−1, εRG=2.43×10^4 cm^−1 M^−1, Ks=1.0×10^5 M^−1.

[4] = Fluorescence quenching of receptor on addition of N-methylguanidinium; format: binding; conditions: 30 μM receptor in distilled water, excitation 388 nm, 2 equivalents of guest
Experimental: as §1, with “The fitted parameters: εRG, the extinction coefficient of a receptor complex with a guest, Ks, the stability constant.” left out, “The fitted parameters: IRG, the fluorescence intensity of a receptor complex with aguest at a given concentration, Ks, the stability constant. The calculations were performed using software Sigma Plot 1.02 (Jandel Scientific) with tolerance value 0.000100. The goodness of fit was evaluated by means of the Student's Paired t-Test (P-value>0.05).” left out

[5] = Fluorescence complexation studies of receptors with urea; format: binding
Experimental: as §1
A fluorescence titration study was performed as follows: a stock solution of the receptor (compound IB) was prepared with distilled water. Using the equipment described in Example 6, an excitation wavelength of 384 nm was used to obtain the spectrum for the uncomplexed receptor. Thereafter, four (4) aliquots of a urea stock solution were added with fluorescence being measured after each addition. A composite spectrum is show in FIG. 8.
Fluorescence was measured for the stock receptor solution using an excitation wavelength of 384 nm with a peak emission being observed at 450 nm. The stock urea solution was then added and fluorescence was measured again. A composite spectrum is shown in FIG. 10, with curve (a) representing the receptor without urea and curve (b) representing the complexation of the receptor with urea.
Fluorescence was also measured using a 25 μM stock solution of the receptor in distilled water. […] A urea solution was prepared and added to the receptor solution to measure quenching due to complexation.
Fluorescence was measured for a 20 μM stock solution of compound ID in a 98:2 (v/v) DMSO:water solvent system. An excitation wavelength of 407 nm was used with a peak emission being observed at 450 nm. A 0.17 M urea solution was then added and fluorescence measured again. A composite spectrum is shown in FIG. 11, with curve (a) representing the receptor (i.e., compound ID) without urea and curve (b) representing the complexation of the receptor with urea. […]
Fluorescence was measured for a 20 μM stock solution of compound IE in a 1:1 (v/v) DMSO:CHCl3 solvent system. […] Twenty equivalents of urea were then added and fluorescence measured again. […]

[6] = in water, fluorescence quenching, read-out: Kd with urea

Structure (SMILES): O=C(O)c1ccc2c(n1)-c1nc3nc4c(cc3cc1CC2)CCc1ccc(C(=O)O)nc1-4 [Compound 3]
- Kd [1]: 4.3 mM
- solubility in water / aqueous medium [2]: soluble in water

Structure (SMILES): CCCCc1c2c(nc3c1CCc1cc4cc5c(nc4nc1-3)-c1nc3c(c(CCCC)c1CC5)CCc1cc4cccnc4nc1-3)-c1nc3ncccc3cc1CC2 [Compound 4]
- solubility in water / aqueous medium [2]: not soluble in water

Structure (SMILES): O=C(O)c1ccc2c(n1)-c1nc3nc4c(cc3cc1CC2)CCc1cc2c(nc1-4)-c1nc3ncccc3cc1CC2 [Compound IA, 5,6,9,10,12,13-Hexahydro[1,10]phenanthrolino[2,3-b]pyrido[2′3′:2,3]quino[7,8-j][1,10]phenanthroline-2-carboxylic acid, potassium salt]
- stability constant Ks of complex with N-methylguanidinium ([3]; 30 μM receptor in distilled water, absorbance at 410 nm): 100000 M⁻¹
- binds N-methylguanidinium more strongly than the arginine cork ([3]; in water): 430 times
- Kd ([3]; in water, correlated from Ks, read-out: Kd of complex with N-methylguanidinium): 0.01 mM
- emission band at 410 nm, remaining share of original fluorescence intensity [4]: approximately 24%

Structure (SMILES): Nc1ccc2cc3c(nc2n1)-c1nc2c(cc1CC3)CCc1cc3cc4c(nc3nc1-2)-c1nc(C(=O)O)ccc1CC4 [Compound IB, 17-Amino-5,6,9,10,12,13-hexahydro[1,10]phenanthrolino[2,3-b]pyrido[2′3′:2,3]quino[7,8-j][1,10]phenanthroline-2-carboxylic acid, potassium salt]
- Kd [5, 6]: < 17 mM

Structure (SMILES): Nc1cccc(-c2ccc3c(n2)-c2nc4nc5c(cc4cc2CC3)CCc2ccc(C(=O)O)nc2-5)n1 [Compound IC, 5,6,9,10-Tetrahydro-13-(2-aminopyridin-6-yl)[1,10]phenanthrolino[2,3-b][1,10]phenanthroline-2-carboxylic acid]
- Kd ([5]; in DMSO, 30 μM receptor, excitation 384 nm, read-out: Kd for urea): 33 mM
- Kd [5, 6]: 13 mM

Structure (SMILES): O=C(O)c1ccc2c(n1)-c1nc3nc4c(cc3cc1CC2)CCc1ccc(-c2nc(O)cc(O)n2)nc1-4 [Compound ID, 5,6,9,10-Tetrahydro-13-(4,6-dihydroxypyrimidin-2-yl) [1,10]phenanthrolino [2,3-b][1,10]phenanthroline-2-carboxylic acid, potassium salt]
- Kd ([5]; 98:2 (v/v) DMSO:water, 20 μM receptor, excitation 407 nm, read-out: Kd for urea): 50 mM

Structure (SMILES): COc1cc(N(C)C)c(OC)cc1CCNC(=O)c1ccc2c(n1)-c1nc3nc4c(cc3cc1CC2)CCc1ccc(C(=O)NCCNc2ccc3c5c(cccc25)C(=O)N(Cc2ccc(C(=O)OC(C)(C)C)cc2)C3=O)nc1-4 [Compound IE, 5,6,9,10-Tetrahydro[1,10]phenanthrolino[2,3-b][1,10]phenanthroline-2-(N-(4-aminoethyl-N′-(4-tert-butoxycarbonyltoluidyl)naphthyridine))carboxamide-13-(N-(2,5-dimethoxy-4-dimethylaminophenethyl))carboxamide]
- Kd ([5]; 1:1 (v/v) DMSO:CHCl3, 20 μM receptor, excitation 460 nm, read-out: Kd for urea): 16 mM
